Laboratory results taken from patent publication US20250108088A1, “REGENERATIVE PEPTIDES AND METHODS FOR USE THEREOF” (priority 2023, published 2025).

System: Normal human dermal fibroblasts (HNDF)
Assay: Myofibroblast transition assay (MFT), aSMA immunofluorescence
Assay type: cell-based
Settings: N = 3; for Myofibroblast transition (MFT), aSMA/cell, % change relative to control: TGF-Beta induced HNDF, control of no peptide; for MFT, Representative value from experiments (% change relative to control): most effective significant concentration of 10, 100, 1000 ng/ml
Excerpt: The myofibroblast transition (MFT) assay determines the effect of the peptide on inhibiting the transition of fibroblasts to myofibroblasts. The extracellular matrix produced by myofibroblasts may be produced in excess and may not be remodeled during tissue healing, leaving behind the fibrous connective tissue that forms a scar. Thus, the ability to regulate the degree of MFT may enable control of scarring. To determine if the peptides provided herein affect MFT, the following assay was performed.
Normal human dermal fibroblasts (HNDF) were cultured in high glucose Dulbecco's modified eagle medium (DMEM) supplemented with 10% fetal bovine serum (FBS) and 5 ml of 10,000 units of penicillin/streptomycin. Cells were cultured on 10 cm plates with media changes every 2 days. Cells were passaged in 0.25% Trypsin/EDTA after achieving 80% confluency.
To induce myofibroblast transition (MFT), normal human dermal fibroblasts (HNDFs) were split from 1-10 cm plates to 5-96 well plates. Cells were then allowed to grow the next day. The following day, cells were serum starved (1% FBS in DMEM) for 4 hours prior to adding 20 ng/ml of TGF-Beta to all wells of the plate. 1000 μM of Vactosertib (TEW-7197/EW-7197) was added to serve as a positive control and different concentrations of peptides were added to serve as the test articles. The cells were then exposed to the compounds for 5 more days before fixation.
The cells were fixed in paraformaldehyde (PFA) for 10-15 minutes, then washed 2× in PBS. Cells were blocked in 4% BSA for 30 minutes at 23° C. Cells were stained with the primary alpha-smooth muscle actin (aSMA) antibody (1:100) for 1 hour at 23° C. or left out at 4° C. overnight. Cells were rinsed 2× with BSA and then the secondary antibody mix was added: Alexa 488 (1:500) and DAPI (1:1000) for 30 min at 23° C. or 1 hr at 4° C. The plates were covered during staining, then rinsed 2× in BSA and stored in PBS.
Plates were imaged using the Celigo Imaging Cytometer by Nexcelcom. The ratio of fluorescent expression of alpha-smooth muscle actin (aSMA) and DAPI were quantified to determine the amount of aSMA/cell.
The change (normalized to the control) in MFT for each concentration is shown along with the p value for all experiments relative to the control of no peptide.

Row | Substance | Myofibroblast transition (MFT), aSMA/cell, % change relative to control (100 ng/ml peptide) | MFT, Representative value from experiments (% change relative to control) | Myofibroblast transition (MFT), aSMA/cell, % change relative to control (10 ng/ml peptide) | Myofibroblast transition (MFT), aSMA/cell, % change relative to control (1000 ng/ml peptide)
1 | FFLRIHPDGRVDGVR [MBWhit1] | −0.3667% | −0.3667 p = (0.038) % |  | 
2 | ASCRC [MBb5] | −0.409% | −0.6162 p = (0.01) % | −0.298% | −0.6162%
3 | PHKGLFCHFGSPANRKIGV [MBWhit47] | −0.5896% | −0.6575 p = (0.021) % | −0.6575% | −0.5755%
4 | IGERCQYRDLKWWELR [MBWhit44] | −0.5753% | −0.702 p = (0.025) % | −0.702% | −0.6111%
5 | LPRDER [MBb3.2] |  | −0.3874 p = (0.003) % |  | −0.3874%
6 | ASLHGNGLRKRLRKFRNK [MBb66] | −0.3446% | −0.3446 p = (0.024) % |  | 
7 | HNGILID [MBBey24] | 0.06835% | −0.05283 p = (0.005) % | −0.05283% | 0.2745%
8 | SDAAVDTSSEITTKDLKEKKEVVEEAENGR [PS-2] | −0.498% | −0.498 p = (0.048) % | −0.4315% | 
9 | IRTLDCDADKKDYCLFGRCQYIVELETFRCRCQKGYYGERCVYLEL [EA-2] | −0.3241% | −0.3241 p = (0.014) % | −0.1343% | −0.00716%
10 | EEIDA [MBb1.2] | −0.3496% | −0.3496 p = (0.006) % |  | 
11 | RNPDSPQ [MBBey14] | −0.3863% | −0.5336 p = (0.012) % | −0.3781% | −0.5336%
12 | KTHPGG [MBWhit38] | −0.3798% | −0.3798 p = (0.006) % |  | 
13 | DVLDKRLFWIQYNREG [MBWhit45] | −0.6265% | −0.6471 p = (0.018) % | −0.6471% | −0.6136%
14 | IGPGLP [MBb76] | −0.03421% | −0.1847 p = (0.009) % |  | −0.1847%
15 | EELTRGLRKRLRKFRNK [MBb23] | −0.1203% | −0.1203 p = (0.016) % |  | 
16 | MDQGYPKETVDDFPG [MBBey12] | −0.6665% | −0.6665 p = (0.007) % |  | −0.4491%
17 | PPSILGLRKRLRKFRNK [MBb44] | −0.1751% | −0.1751 p = (0.005) % |  | 
18 | AVHELGH [MBb24] | −0.1419% | −0.1419 p = (0.003) % |  | 
19 | IAHELGH [MBb2.2] | −0.1476% | −0.1928 p = (0.021) % | −0.1592% | −0.1928%
20 | GESKGLGLRKRLRKFRNK [MBb36] | −0.1964% | −0.1964 p = (0.002) % | −0.07698% | 

Row | Substance | Myofibroblast transition (MFT), aSMA/cell, % change relative to control (100 ng/ml peptide) | MFT, Representative value from experiments (% change relative to control) | Myofibroblast transition (MFT), aSMA/cell, % change relative to control (10 ng/ml peptide) | Myofibroblast transition (MFT), aSMA/cell, % change relative to control (1000 ng/ml peptide)
21 | CDADKKDYCLFGRCQYIVELETFRCRCQKGYYGERCVYLEL [EA-1] | −0.2928% | −0.2928 p = (0.016) % | −0.1401% | −0.0906%
22 | EKKNPGLRKRLRKFRNK [MBb73] | −0.07558% | −0.07558 p = (0.04) % |  | 
23 | DPCPLCGLRKRLRKFRNK [MBb12] | −0.4465% | −0.4465 p = (0.037) % |  | 
24 | IAHELGHNLGMSH [MBb25] | −0.1769% | −0.1769 p = (0.008) % |  | 
25 | WVSGL [MBb7] | −0.1848% | −0.2139 p = (0.02) % | −0.2139% | 
26 | DCRICS [MBa1] | −0.2174% | −0.2174 p = (0.04) % |  | 
27 | VYFVIKT [MBBey41] |  | −0.691 p = (0.021) % |  | −0.691%
28 | ENIKKGLRKRLRKFRNK [MBb37] | −0.1426% | −0.1426 p = (0.032) % |  | 
29 | VCDEPKDQTVVGPALAAYR [MBWhit46] | −0.6191% | −0.6328 p = (0.031) % | −0.534% | −0.6328%
30 | LKEKKPAKEK [PC-1] |  | −0.4788 p = (0.038) % |  | −0.4788%
31 | NTCHQCGLRKRLRKFRNK [MBb35] | −0.3719% | −0.4001 p = (0.016) % |  | −0.4001%
32 | QLFEDVIAEP [MBBey 38] |  | −0.3071 p = (0.007) % | −0.3071% | 
33 | VLFEDVIAEP [MBBey 37] |  | −0.2873 p = (0.018) % |  | −0.2873%
34 | CGGLPGLRKRLRKFRNK [MBb41] | −0.6154% | −0.6154 p = (0.03) % |  | −0.2177%
35 | RVIWA [MBb4.2] | −0.2113% | −0.2416 p = (0.003) % |  | −0.2416%
36 | RWMAP [MBb74] |  | −0.3048 p = (0.019) % | 0.04975% | −0.3048%
37 | VAAHELGHSLGMGH [MBm2] | −0.3275% | −0.4235 p = (0.007) % | −0.4235% | −0.2058%
38 | EYENPGLRKRLRKFRNK [MBb10] | −0.2694% | −0.2694 p = (0.023) % |  | 
39 | ITCPHCQ [MBa9] |  | −0.3194 p = (0.02) % |  | −0.3194%
40 | AKEVEKH [MBBey4] | −0.4435% | −0.4435 p = (0.007) % | −0.2205% | 
